Results taken from ChEMBL document CHEMBL1201861, “Genomics of Drug Sensitity in Cancer screening data, Wellcome Trust Sanger Institute”.
Structures can show the parent of a compound that is named as a salt.

What was measured:
Assay in all cases: cells
[1] = test system: L-363; assay type: functional, cell-based, Homo sapiens; conditions: Homo sapiens, L-363
Description: SANGER: Inhibition of human L-363 cell growth in a cell viability assay.

[2] = test system: TE-8; assay type: functional, cell-based, Homo sapiens; conditions: Homo sapiens, TE-8;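 also: growth inhibition of TE-8 cells, measured with a cell viability readout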
Description: SANGER: Inhibition of human TE-8 cell growth in a cell viability assay.

[3] = test system: NOS-1; assay type: functional, cell-based, Homo sapiens; conditions: Homo sapiens, NOS-1;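 also: growth inhibition of the human NOS-1 cell line, read out with a cell viability assay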
Description: SANGER: Inhibition of human NOS-1 cell growth in a cell viability assay.

[4] = test system: SW 962; assay type: functional, cell-based, Homo sapiens; conditions: Homo sapiens, SW 962;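 also: growth inhibition of human SW962 cells, read out by a cell viability assay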
Description: SANGER: Inhibition of human SW962 cell growth in a cell viability assay.

[5] = test system: BV-173; assay type: functional, cell-based, Homo sapiens; conditions: Homo sapiens, BV-173
Description: SANGER: Inhibition of human BV-173 cell growth in a cell viability assay.

[6] = test system: RCC10RGB; assay type: functional, cell-based, Homo sapiens; conditions: Homo sapiens, RCC10RGB;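 also: growth inhibition of human RCC10RGB cells, read out by a cell viability assay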
Description: SANGER: Inhibition of human RCC10RGB cell growth in a cell viability assay.

[7] = test system: SH-4; assay type: functional, cell-based, Homo sapiens; conditions: Homo sapiens, SH-4;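 also: growth inhibition of SH-4 cells, read out with a cell viability assay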
Description: SANGER: Inhibition of human SH-4 cell growth in a cell viability assay.

[8] = test system: NKM-1; assay type: functional, cell-based, Homo sapiens; conditions: Homo sapiens, NKM-1;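 also: growth inhibition of NKM-1 cells, read out with a cell viability assay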
Description: SANGER: Inhibition of human NKM-1 cell growth in a cell viability assay.

[9] = test system: EW-11; assay type: functional, cell-based, Homo sapiens; conditions: Homo sapiens, EW-11;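 also: growth inhibition of human EW-11 cells, measured with a cell viability assay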
Description: SANGER: Inhibition of human EW-11 cell growth in a cell viability assay.

[10] = test system: ES4; assay type: functional, cell-based, Homo sapiens; conditions: Homo sapiens, ES4;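 also: growth inhibition of human ES4 cells, read out by a cell viability assay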
Description: SANGER: Inhibition of human ES4 cell growth in a cell viability assay.

[11] = test system: NB69; assay type: functional, cell-based, Homo sapiens; conditions: Homo sapiens, NB69;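 also: growth inhibition of NB69 cells, determined by a cell viability assay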
Description: SANGER: Inhibition of human NB69 cell growth in a cell viability assay.

[12] = test system: SNB-75; assay type: functional, cell-based, Homo sapiens; conditions: Homo sapiens, SNB-75;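 also: cell viability assay measuring growth inhibition of human SNB-75 cells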
Description: SANGER: Inhibition of human SNB75 cell growth in a cell viability assay.

[13] = test system: SW872; assay type: functional, cell-based, Homo sapiens; conditions: Homo sapiens, SW872;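 also: growth inhibition of SW872 cells, read out by a viability assay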
Description: SANGER: Inhibition of human SW872 cell growth in a cell viability assay.

[14] = test system: MHH-PREB-1; assay type: functional, cell-based, Homo sapiens; conditions: Homo sapiens, MHH-PREB-1;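 also: cell viability assay measuring inhibition of proliferation of human MHH-PREB-1 cells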
Description: SANGER: Inhibition of human MHH-PREB-1 cell growth in a cell viability assay.

[15] = test system: 697; assay type: functional, cell-based, Homo sapiens; conditions: Homo sapiens
Description: SANGER: Inhibition of human 697 cell growth in a cell viability assay.

[16] = test system: SW982; assay type: functional, cell-based, Homo sapiens; conditions: Homo sapiens, SW982;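 also: growth inhibition of SW982 cells, read out with a cell viability assay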
Description: SANGER: Inhibition of human SW982 cell growth in a cell viability assay.

[17] = test system: ES5; assay type: functional, cell-based, Homo sapiens; conditions: Homo sapiens, ES5;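 also: growth inhibition of human ES5 cells, read out by a cell viability assay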
Description: SANGER: Inhibition of human ES5 cell growth in a cell viability assay.

[18] = test system: NCI-H446; assay type: functional, cell-based, Homo sapiens; conditions: Homo sapiens, NCI-H446;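 also: growth inhibition of NCI-H446 cells determined by a cell viability assay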
Description: SANGER: Inhibition of human NCI-H446 cell growth in a cell viability assay.

[19] = test system: MOLT-16; assay type: functional, cell-based, Homo sapiens; conditions: Homo sapiens, MOLT-16;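 also: growth inhibition of human MOLT-16 cells, read out with a cell viability assay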
Description: SANGER: Inhibition of human MOLT-16 cell growth in a cell viability assay.

[20] = test system: U-87 MG; assay type: functional, cell-based, Homo sapiens, U-87MG ATCC; conditions: Homo sapiens, U-87 MG;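 also: growth inhibition of the cells measured with a viability assay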
Description: SANGER: Inhibition of human U-87-MG cell growth in a cell viability assay.

[21] = test system: HD-MY-Z; assay type: functional, cell-based, Homo sapiens; conditions: Homo sapiens, HD-MY-Z;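 also: growth inhibition of HD-MY-Z cells, read out with a cell viability assay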
Description: SANGER: Inhibition of human HD-MY-Z cell growth in a cell viability assay.

[22] = test system: HAL-01; assay type: functional, cell-based, Homo sapiens; conditions: Homo sapiens, HAL-01;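 also: growth inhibition of human HAL-01 cells, read out with a cell viability assay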
Description: SANGER: Inhibition of human HAL-01 cell growth in a cell viability assay.

[23] = test system: EKVX; assay type: functional, cell-based, Homo sapiens; conditions: Homo sapiens, EKVX;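 also: growth inhibition of human EKVX cells, read out with a cell viability assay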
Description: SANGER: Inhibition of human EKVX cell growth in a cell viability assay.

[24] = test system: LB771-HNC; assay type: functional, cell-based, Homo sapiens; conditions: Homo sapiens, LB771-HNC;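 also: growth inhibition of LB771-HNC human cells, read out with a cell viability assay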
Description: SANGER: Inhibition of human LB771-HNC cell growth in a cell viability assay.

[25] = test system: SCC-15; assay type: functional, cell-based, Homo sapiens; conditions: Homo sapiens, SCC-15;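 also: growth inhibition of SCC-15 cells, read out with a cell viability assay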
Description: SANGER: Inhibition of human SCC-15 cell growth in a cell viability assay.

[26] = test system: SF-268; assay type: functional, cell-based, Homo sapiens; conditions: Homo sapiens, SF-268;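 also: growth inhibition of SF-268 cells determined with a cell viability assay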
Description: SANGER: Inhibition of human SF268 cell growth in a cell viability assay.

[27] = test system: NB6; assay type: functional, cell-based, Homo sapiens; conditions: Homo sapiens, NB6;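 also: growth inhibition of NB6 cells, read out by a cell viability assay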
Description: SANGER: Inhibition of human NB6 cell growth in a cell viability assay.

[28] = test system: LB831-BLC; assay type: functional, cell-based, Homo sapiens; conditions: Homo sapiens, LB831-BLC;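 also: growth inhibition of LB831-BLC cells, read out with a cell viability assay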
Description: SANGER: Inhibition of human LB831-BLC cell growth in a cell viability assay.

[29] = test system: ES7; assay type: functional, cell-based, Homo sapiens; conditions: Homo sapiens, ES7;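 also: growth inhibition of cultured human ES7 cells, read out as cell viability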
Description: SANGER: Inhibition of human ES7 cell growth in a cell viability assay.

[30] = test system: TGBC24TKB; assay type: functional, cell-based, Homo sapiens; conditions: Homo sapiens, TGBC24TKB;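 also: growth inhibition of human TGBC24TKB cells, read out with a cell viability assay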
Description: SANGER: Inhibition of human TGBC24TKB cell growth in a cell viability assay.

[31] = test system: 8-MG-BA; assay type: functional, cell-based, Homo sapiens; conditions: Homo sapiens, 8-MG-BA;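 also: growth inhibition of 8-MG-BA cells, read out with a cell viability assay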
Description: SANGER: Inhibition of human 8-MG-BA cell growth in a cell viability assay.

[32] = test system: MEG-01; assay type: functional, cell-based, Homo sapiens; conditions: Homo sapiens, MEG-01;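 also: growth inhibition of MEG-01 cells, read out by a cell viability assay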
Description: SANGER: Inhibition of human MEG-01 cell growth in a cell viability assay.

[33] = test system: MFM-223; assay type: functional, cell-based, Homo sapiens; conditions: Homo sapiens, MFM-223
Description: SANGER: Inhibition of human MFM-223 cell growth in a cell viability assay.

[34] = test system: D-392MG; assay type: functional, cell-based, Homo sapiens; conditions: Homo sapiens, D-392MG
[35] = test system: P30-OHK; assay type: functional, cell-based, Homo sapiens; conditions: Homo sapiens, P30-OHK;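 also: growth inhibition of the P30-OHK cell line, read out with a cell viability assay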
Description: SANGER: Inhibition of human P30-OHK cell growth in a cell viability assay.

[36] = test system: DJM-1; assay type: functional, cell-based, Homo sapiens; conditions: Homo sapiens, DJM-1;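 also: growth inhibition of human DJM-1 cells, read out by a cell viability assay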
Description: SANGER: Inhibition of human DJM-1 cell growth in a cell viability assay.

[37] = test system: A4-Fuk; assay type: functional, cell-based, Homo sapiens; conditions: Homo sapiens, A4-Fuk;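 also: growth inhibition of A4-Fuk cells, read out by a cell viability assay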
Description: SANGER: Inhibition of human A4-Fuk cell growth in a cell viability assay.

[38] = test system: HL-60; assay type: functional, cell-based, Homo sapiens; conditions: Homo sapiens, HL-60;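 also: growth inhibition of human HL-60 cells, read out with a cell viability assay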
Description: SANGER: Inhibition of human HL-60 cell growth in a cell viability assay.

[39] = test system: MZ7-mel; assay type: functional, cell-based, Homo sapiens; conditions: Homo sapiens, MZ7-mel;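 also: growth inhibition of human MZ7-mel cells, measured by a cell viability assay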
Description: SANGER: Inhibition of human MZ7-mel cell growth in a cell viability assay.

[40] = test system: NB12; assay type: functional, cell-based, Homo sapiens; conditions: Homo sapiens, NB12;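 also: growth inhibition of human NB12 cells, read out by a cell viability assay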
Description: SANGER: Inhibition of human NB12 cell growth in a cell viability assay.

[41] = test system: MOLT-4; assay type: functional, cell-based, Homo sapiens; conditions: Homo sapiens, MOLT-4;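 also: growth inhibition of MOLT-4 cells, determined with a cell viability readout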
Description: SANGER: Inhibition of human MOLT-4 cell growth in a cell viability assay.

[42] = test system: LB2241-RCC; assay type: functional, cell-based, Homo sapiens; conditions: Homo sapiens, LB2241-RCC;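 also: cell viability assay measuring how strongly the cultured human renal carcinoma line is prevented from growing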
Description: SANGER: Inhibition of human LB2241-RCC cell growth in a cell viability assay.

[43] = test system: HC-1; assay type: functional, cell-based, Homo sapiens; conditions: Homo sapiens, HC-1;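 also: growth inhibition of HC-1 cells measured by a cell viability assay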
Description: SANGER: Inhibition of human HC-1 cell growth in a cell viability assay.

[44] = test system: ETK-1; assay type: functional, cell-based, Homo sapiens; conditions: Homo sapiens, ETK-1;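 also: growth inhibition of human ETK-1 cells, read out with a cell viability assay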
Description: SANGER: Inhibition of human ETK-1 cell growth in a cell viability assay.

[45] = test system: IST-SL1; assay type: functional, cell-based, Homo sapiens; conditions: Homo sapiens, IST-SL1;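 also: growth inhibition of human IST-SL1 cells, read out with a cell viability assay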
Description: SANGER: Inhibition of human IST-SL1 cell growth in a cell viability assay.

[46] = test system: TE-5; assay type: functional, cell-based, Homo sapiens; conditions: Homo sapiens, TE-5;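 also: inhibition of cell growth, read out by a cell viability assay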
Description: SANGER: Inhibition of human TE-5 cell growth in a cell viability assay.

[47] = test system: GAK; assay type: functional, cell-based, Homo sapiens; conditions: Homo sapiens, GAK;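 also: cell growth inhibition read out by a cell viability assay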
Description: SANGER: Inhibition of human GAK cell growth in a cell viability assay.

[48] = test system: Mo; assay type: functional, cell-based, Homo sapiens; conditions: Homo sapiens, Mo
Description: SANGER: Inhibition of human Mo-T cell growth in a cell viability assay.

[49] = test system: NCI-H1838; assay type: functional, cell-based, Homo sapiens; conditions: Homo sapiens, NCI-H1838;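 also: growth inhibition of NCI-H1838 cells, determined with a cell viability readout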
Description: SANGER: Inhibition of human NCI-H1838 cell growth in a cell viability assay.

[50] = test system: LS-1034; assay type: functional, cell-based, Homo sapiens; conditions: Homo sapiens, LS-1034
Description: SANGER: Inhibition of human LS-1034 cell growth in a cell viability assay.

SMILES: CCC/C=C/C=C/C(=O)O[C@H]1/C(=C/C(=O)OC)C[C@H]2C[C@H]([C@@H](C)O)OC(=O)C[C@H](O)C[C@@H]3C[C@H](OC(C)=O)C(C)(C)[C@](O)(C[C@@H]4C/C(=C/C(=O)OC)C[C@H](/C=C/C(C)(C)[C@]1(O)O2)O4)O3 [BRYOSTATIN 1]
- IC50 [1]: > 8 nM
- IC50 [2]: > 8 nM
- IC50 [3]: > 8 nM
- IC50 [4]: > 8 nM
- IC50 [5]: > 8 nM
- IC50 [6]: > 8 nM
- IC50 [7]: > 8 nM
- IC50 [8]: > 8 nM
- IC50 [9]: > 8 nM
- IC50 [10]: > 8 nM
- IC50 [11]: > 8 nM
- IC50 [12]: > 8 nM
- IC50 [13]: > 8 nM
- IC50 [14]: > 8 nM
- IC50 [15]: > 8 nM
- IC50 [16]: > 8 nM
- IC50 [17]: > 8 nM
- IC50 [18]: > 8 nM
- IC50 [19]: > 8 nM
- IC50 [20]: > 8 nM
- IC50 [21]: > 8 nM
- IC50 [22]: > 8 nM
- IC50 [23]: > 8 nM
- IC50 [24]: > 8 nM
- IC50 [25]: > 8 nM
- IC50 [26]: > 8 nM
- IC50 [27]: > 8 nM
- IC50 [28]: > 8 nM
- IC50 [29]: > 8 nM
- IC50 [30]: > 8 nM
- IC50 [31]: > 8 nM
- IC50 [32]: > 8 nM
- IC50 [33]: > 8 nM
- IC50 [34]: > 8 nM
- IC50 [35]: > 8 nM
- IC50 [36]: > 8 nM
- IC50 [37]: > 8 nM
- IC50 [38]: > 8 nM
- IC50 [39]: > 8 nM
- IC50 [40]: > 8 nM
- IC50 [41]: > 8 nM
- IC50 [42]: > 8 nM
- IC50 [43]: > 8 nM
- IC50 [44]: > 8 nM
- IC50 [45]: > 8 nM
- IC50 [46]: > 8 nM
- IC50 [47]: > 8 nM
- IC50 [48]: > 8 nM
- IC50 [49]: > 8 nM
- IC50 [50]: > 8 nM

SMILES: COC1=CC(c2cc3ccccc3[nH]2)=N/C1=C\c1[nH]c(C)cc1C [OBATOCLAX MESYLATE]
- IC50 [1]: 46.8 nM
- IC50 [2]: 98.9 nM
- IC50 [3]: 64.1 nM
- IC50 [4]: 65.7 nM
- IC50 [5]: 1830 nM
- IC50 [6]: 1140 nM
- IC50 [7]: < 62.5 nM
- IC50 [8]: < 62.5 nM
- IC50 [9]: 5180 nM
- IC50 [10]: 103 nM
- IC50 [11]: 15.7 nM
- IC50 [12]: 557 nM
- IC50 [13]: 160 nM
- IC50 [14]: < 62.5 nM
- IC50 [15]: 53.2 nM
- IC50 [16]: 445 nM
- IC50 [17]: 605 nM
- IC50 [18]: 950 nM
- IC50 [19]: 1730 nM
- IC50 [20]: 2290 nM
- IC50 [21]: 14600 nM
- IC50 [22]: < 62.5 nM
- IC50 [23]: 1660 nM
- IC50 [24]: 103 nM
- IC50 [25]: 49 nM
- IC50 [26]: 57.6 nM
- IC50 [27]: 4430 nM
- IC50 [28]: 444 nM
- IC50 [29]: < 62.5 nM
- IC50 [30]: 3680 nM
- IC50 [31]: 78 nM
- IC50 [32]: 454 nM
- IC50 [33]: 3370 nM
- IC50 [34]: 1600 nM
- IC50 [35]: 240 nM
- IC50 [36]: 175 nM
- IC50 [37]: 89.5 nM
- IC50 [38]: 1260 nM
- IC50 [39]: < 62.5 nM
- IC50 [40]: 725 nM
- IC50 [41]: 477 nM
- IC50 [42]: 761 nM
- IC50 [43]: 1930 nM
- IC50 [44]: 56.7 nM
- IC50 [45]: 6540 nM
- IC50 [46]: 483 nM
- IC50 [47]: < 62.5 nM
- IC50 [48]: 1900 nM
- IC50 [49]: > 16000 nM
- IC50 [50]: 658 nM

SMILES: Cc1cc([N+](=O)[O-])ccc1NS(=O)(=O)c1cc(Cl)ccc1Cl
- IC50 [1]: 8560 nM
- IC50 [2]: 5760 nM
- IC50 [3]: 2060 nM
- IC50 [4]: 4680 nM
- IC50 [5]: > 32000 nM
- IC50 [6]: > 32000 nM
- IC50 [7]: 1380 nM
- IC50 [8]: 10200 nM
- IC50 [9]: > 32000 nM
- IC50 [10]: 7570 nM
- IC50 [11]: 31300 nM
- IC50 [12]: > 32000 nM
- IC50 [13]: 4950 nM
- IC50 [14]: 5950 nM
- IC50 [15]: > 32000 nM
- IC50 [16]: 9220 nM
- IC50 [17]: > 32000 nM
- IC50 [18]: > 32000 nM
- IC50 [19]: 5120 nM
- IC50 [20]: 22400 nM
- IC50 [21]: 14300 nM
- IC50 [22]: 12400 nM
- IC50 [23]: 7560 nM
- IC50 [24]: 2240 nM
- IC50 [25]: 3940 nM
- IC50 [26]: 6020 nM
- IC50 [27]: 13500 nM
- IC50 [28]: 2100 nM
- IC50 [29]: 11100 nM
- IC50 [30]: 5200 nM
- IC50 [31]: 3700 nM
- IC50 [32]: > 32000 nM
- IC50 [33]: > 32000 nM
- IC50 [34]: > 32000 nM
- IC50 [35]: > 32000 nM
- IC50 [36]: 10500 nM
- IC50 [37]: > 32000 nM
- IC50 [38]: 3790 nM
- IC50 [39]: 3390 nM
- IC50 [40]: 11100 nM
- IC50 [41]: > 32000 nM
- IC50 [42]: 2610 nM
- IC50 [43]: 12700 nM
- IC50 [44]: 6350 nM
- IC50 [45]: 24400 nM
- IC50 [46]: 6730 nM
- IC50 [47]: 2010 nM
- IC50 [48]: > 32000 nM
- IC50 [49]: > 32000 nM
- IC50 [50]: 5550 nM
